Tested on: KRAS-mutant PDC multicell tumor spheroid viability
Experiment: Anticancer human tumor 521955-158-R2-J5-PDC patient-derived pancreatic carcinoma cell line growth inhibition [KRAS2]
Details: for IC50: curve of first compound; for viability, T/C: stronger effect = lower value
Outline: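 Combination screen of spheroid viability in tumor-cell co-cultures with endothelial (HUVEC) and mesenchymal stem cell stroma. Each agent was tested in half-log dilutions, topping at clinical Cmax or at 10 microM without a known Cmax.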

[1] = second compound 0.1 µM, first compound 0.0316 µM
[2] = second compound 0.1 µM, first compound 0.1 µM
[3] = second compound 0.1 µM, first compound 0.316 µM
[4] = second compound 0.1 µM, first compound 1 µM
[5] = second compound 0.1 µM, first compound 3.16 µM
[6] = second compound 0.316 µM, first compound 0.0316 µM
[7] = second compound 0.316 µM, first compound 0.1 µM
[8] = second compound 0.316 µM, first compound 0.316 µM
[9] = second compound 0.316 µM, first compound 1 µM
[10] = second compound 0.316 µM, first compound 3.16 µM
[11] = second compound 1 µM, first compound 0.0316 µM
[12] = second compound 1 µM, first compound 0.1 µM
[13] = second compound 1 µM, first compound 0.316 µM
[14] = second compound 1 µM, first compound 1 µM
[15] = second compound 1 µM, first compound 3.16 µM
[16] = second compound 3.16 µM, first compound 0.0316 µM
[17] = second compound 3.16 µM, first compound 0.1 µM
[18] = second compound 3.16 µM, first compound 0.316 µM
[19] = second compound 3.16 µM, first compound 1 µM
[20] = second compound 10 µM, first compound 0.0316 µM
[21] = second compound 10 µM, first compound 0.1 µM
[22] = second compound 10 µM, first compound 0.316 µM
[23] = second compound 10 µM, first compound 1 µM
[24] = second compound 10 µM, first compound 3.16 µM
[25] = second compound 0.1 µM, first compound 10 µM
[26] = second compound 0.316 µM, first compound 10 µM
[27] = second compound 1 µM, first compound 10 µM
[28] = second compound 3.16 µM, first compound 3.16 µM
[29] = second compound 3.16 µM, first compound 10 µM
[30] = second compound 10 µM, first compound 10 µM
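Further: viability read after seven days of drug exposure.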

SMILES	IC50 (second compound 0.1 µM) [nM]	IC50 (second compound 0.316 µM) [nM]	IC50 (second compound 1 µM) [nM]	IC50 (second compound 3.16 µM) [nM]	IC50 (second compound 10 µM) [nM]	viability, T/C [1] [%]	viability, T/C [2] [%]	viability, T/C [3] [%]	viability, T/C [4] [%]	viability, T/C [5] [%]	viability, T/C [6] [%]	viability, T/C [7] [%]	viability, T/C [8] [%]	viability, T/C [9] [%]	viability, T/C [10] [%]	viability, T/C [11] [%]	viability, T/C [12] [%]	viability, T/C [13] [%]	viability, T/C [14] [%]	viability, T/C [15] [%]	other results
CC1COCCN1c1cc(-c2ccnn2C)c2ccnc(-c3ccn[nH]3)c2n1 (stereo not drawn) + C=CC(=O)N1CCN(c2nc(=O)n(-c3c(C)ccnc3C(C)C)c3nc(-c4c(O)cccc4F)c(F)cc23)C(C)C1	30.2	40.3	30.1	24.3	11.5	47.9	10.5	13.5	24.1	26.9	58.5	11.4	13	20.3	28	47.6	10.5	13.6	25.6	29	viability, T/C (second compound 0.1 µM, first compound 0.01 µM): 101%; viability, T/C (second compound 0.316 µM, first compound 0.01 µM): 114%; viability, T/C (second compound 1 µM, first compound 0.01 µM): 102%; viability, T/C (second compound 3.16 µM, first compound 0.01 µM): 79.2%; viability, T/C [16]: 41.3%; viability, T/C [17]: 11.6%; viability, T/C [18]: 13.7%; viability, T/C [19]: 22.6%; viability, T/C (second compound 10 µM, first compound 0.01 µM): 54.1%; viability, T/C [20]: 18.1%; viability, T/C [21]: 13.2%; viability, T/C [22]: 18.1%; viability, T/C [23]: 23.4%; viability, T/C [24]: 25.5%
CC1OCC2(CCN(c3cnc(Sc4ccnc(N)c4Cl)c(N)n3)CC2)C1N (stereo not drawn) + C=CC(=O)N1CCN(c2nc(=O)n(-c3c(C)ccnc3C(C)C)c3nc(-c4c(O)cccc4F)c(F)cc23)C(C)C1	> 10000	> 10000	> 10000	> 10000	> 10000	89.8	96.4	76.3	72	97.5	89.4	81.5	76.2	75.7	71.6	101	88.4	91.8	87.4	71.7	viability, T/C [25]: 67.6%; viability, T/C [26]: 63.4%; viability, T/C [27]: 66.4%; viability, T/C [16]: 92.1%; viability, T/C [17]: 87.5%; viability, T/C [18]: 72.3%; viability, T/C [19]: 79.1%; viability, T/C [28]: 62%; viability, T/C [29]: 64.7%; viability, T/C [20]: 66.2%; viability, T/C [21]: 59.3%; viability, T/C [22]: 66.2%; viability, T/C [23]: 61.3%; viability, T/C [24]: 54.6%; viability, T/C [30]: 57.8%
CCNC(=O)CC1N=C(c2ccc(Cl)cc2)c2cc(OC)ccc2-n2c(C)nnc21 (stereo not drawn) + C=CC(=O)N1CCN(c2nc(=O)n(-c3c(C)ccnc3C(C)C)c3nc(-c4c(O)cccc4F)c(F)cc23)C(C)C1	474	1180	1100	741	169	99.4	93.4	55.3	41.1	39.9	119	98.4	72.2	50	43.7	120	109	77	52.3	38.9	viability, T/C [25]: 35.7%; viability, T/C [26]: 37.1%; viability, T/C [27]: 35.8%; viability, T/C [16]: 101%; viability, T/C [17]: 86.7%; viability, T/C [18]: 63%; viability, T/C [19]: 45.4%; viability, T/C [28]: 39.1%; viability, T/C [29]: 37.5%; viability, T/C [20]: 66.5%; viability, T/C [21]: 58.6%; viability, T/C [22]: 39.4%; viability, T/C [24]: 29%; viability, T/C [30]: 31.1%
Cn1nccc1Nc1nccc(-c2cc3c(s2)C(C)(C)N(CCN2CCOCC2)C3=O)n1 + C=CC(=O)N1CCN(c2nc(=O)n(-c3c(C)ccnc3C(C)C)c3nc(-c4c(O)cccc4F)c(F)cc23)C(C)C1	1610	2020	2910	2960	1010	98.9	94.9	76.9	59.4	37.9	125	107	76.9	58.5	47	117	110	85.3	67.5	42.7	viability, T/C [25]: 24.2%; viability, T/C [26]: 36.7%; viability, T/C [27]: 47.5%; viability, T/C [16]: 110%; viability, T/C [17]: 116%; viability, T/C [18]: 84.6%; viability, T/C [19]: 64.2%; viability, T/C [28]: 54.1%; viability, T/C [29]: 40.5%; viability, T/C [20]: 78.5%; viability, T/C [21]: 78.1%; viability, T/C [22]: 61.3%; viability, T/C [23]: 52.8%; viability, T/C [24]: 41.1%; viability, T/C [30]: 43.1%
